Assay results taken from patent US12600714B2, “Substituted pyrazinecarboxamide compounds for treating diseases related to EGFR mutation” (WIGEN BIOMEDICINE TECHNOLOGY (SHANGHAI) CO., LTD., priority 2020, dated 2026).

System: EGFR (del19/T790M/C797S)
Assay: HTRF inhibitory activity assay against EGFR (del19/T790M/C797S) enzyme
Type: biochemical
Experimental: Inhibitory Activity Assay of the Compounds Disclosed Herein Against EGFR (del19/T790M/C797S), EGFR (L858R/T790M/C797S) or EGFR (WT) Enzymes
The inhibitory effects of the compounds against EGFR (del19/T790M/C797S), EGFR (L858R/T790M/C797S) or EGFR (WT) enzyme activity was determined by using HTRF. The procedures are as follows:
The WT or mutant EGFR proteins were incubated with a serially diluted compounds at 28° C. for 10 min followed by addition of biotin-labeled general tyrosine kinase (TK) substrate and ATP. The mixture was incubated at room temperature for 40 min for reaction. After the termination of the reaction, an Eu3+-Cryptate-labeled antibody against TK and streptavidin-XL665 were added and the mixture was incubated at room temperature for 60 min. The luminescences at 615 nm and 665 nm were detected and the ratio of 665/615 was calculated to quantify the level of TK substrate phosphorylation. Inhibition % and IC50 of the compounds were calculated relative to the control group.

Structure (SMILES)	EGFR (del19/T790M/C797S) inhibition (%) (0.3 nM compound)
CN1CCN(C2CCN(c3ccc(Nc4nc(Oc5ccccc5)c(-c5ccccc5)nc4C(N)=O)cc3)CC2)CC1 [compound 6]	+ (+ indicates an inhibition less than or equal to 20%)
CN1CCC(Nc2nc(Nc3ccc(N4CCC(N5CCN(C)CC5)CC4)cc3)c(C(N)=O)nc2-c2ccccc2)CC1 [compound 7]	+ (+ indicates an inhibition less than or equal to 20%)
CN1CCN(C2CCN(c3ccc(Nc4nc(NC5CCCC5(C)O)c(-c5ccccc5)nc4C(N)=O)cc3)CC2)CC1 (stereo not shown) [compound 8]	+ (+ indicates an inhibition less than or equal to 20%)
CN1CCN(C2CCN(c3ccc(Nc4nc(NC5CCCC5)c(-c5ccccc5)nc4C(N)=O)cc3)CC2)CC1 [compound 9]	+ (+ indicates an inhibition less than or equal to 20%)
CN1CCN(C2CCN(c3ccc(Nc4nc(OC5CCOCC5)c(-c5ccccc5)nc4C(N)=O)cc3)CC2)CC1 [compound 12]	+ (+ indicates an inhibition less than or equal to 20%)
CN1CCN(C2CCN(c3ccc(Nc4nc(N5CCCCC5)c(-c5ccccc5)nc4C(N)=O)cc3)CC2)CC1 [compound 15]	+ (+ indicates an inhibition less than or equal to 20%)
CN1CCN(C2CCN(c3ccc(Nc4nc(O[C@@H]5CCOC5)c(-c5ccccc5)nc4C(N)=O)cc3)CC2)CC1 [compound 16]	+ (+ indicates an inhibition less than or equal to 20%)
CN1CCN(C2CCN(c3ccc(Nc4nc(N5CCCC5)c(-c5ccccc5)nc4C(N)=O)cc3)CC2)CC1 [compound 17]	+ (+ indicates an inhibition less than or equal to 20%)
CN1CCN(C2CCN(c3ccc(Nc4nc(O[C@H]5CCOC5)c(-c5ccccc5)nc4C(N)=O)cc3)CC2)CC1 [compound 18]	+ (+ indicates an inhibition less than or equal to 20%)
COc1nc(Nc2ccc(N3CCC(N4CCN(C)CC4)CC3)cc2)c(C(N)=O)nc1-c1ccccc1 [compound 19, 5-methoxy-3-((4-(4-(4-methylpiperazin-1-yl)piperidin-1-yl)phenyl)amino)-6-phenylpyrazine-2-carboxamide]	+ (+ indicates an inhibition less than or equal to 20%)
CN1CCN(C2CCN(c3ccc(Nc4nc(NCCC(C)(C)O)c(-c5ccccc5)nc4C(N)=O)cc3)CC2)CC1 [compound 22]	+ (+ indicates an inhibition less than or equal to 20%)
CN1CCN(C2CCN(c3ccc(Nc4nc(N[C@H]5CC[C@@H](O)CC5)c(-c5ccccc5)nc4C(N)=O)cc3)CC2)CC1 [compound 24]	++ (++ indicates an inhibition from 20% to 50%)
CN1CCN(C2CCN(c3ccc(Nc4nc(OCC(F)(F)F)c(-c5ccccc5)nc4C(N)=O)cc3)CC2)CC1 [compound 25]	+ (+ indicates an inhibition less than or equal to 20%)
CN1CCN(C2CCN(c3ccc(Nc4nc(NCCCS(C)(=O)=O)c(-c5ccccc5)nc4C(N)=O)cc3)CC2)CC1 [compound 27]	+ (+ indicates an inhibition less than or equal to 20%)
CN(C)CCNc1nc(Nc2ccc(N3CCC(N4CCN(C)CC4)CC3)cc2)c(C(N)=O)nc1-c1ccccc1 [compound 28]	+ (+ indicates an inhibition less than or equal to 20%)
CN1CCN(C2CCN(c3ccc(Nc4nc(N5CCC(O)C5)c(-c5ccccc5)nc4C(N)=O)cc3)CC2)CC1 (stereo not shown) [compound 29]	++ (++ indicates an inhibition from 20% to 50%)
CN1CCN(C2CCN(c3ccc(Nc4nc(NC5CCC5)c(-c5ccccc5)nc4C(N)=O)cc3)CC2)CC1 [compound 30]	++ (++ indicates an inhibition from 20% to 50%)
CN1CCN(c2ccc(Nc3nc(NC4CCOCC4)c(-c4ccccc4C(N)=O)nc3C(N)=O)cc2)CC1 [compound 36]	+ (+ indicates an inhibition less than or equal to 20%)
CN1CCN(C2CCN(c3ccc(Nc4nc(NC5CCOCC5)c(-c5cnn(C)c5)nc4C(N)=O)cc3)CC2)CC1 [compound 40]	+ (+ indicates an inhibition less than or equal to 20%)
COc1ccccc1-c1nc(C(N)=O)c(Nc2ccc(N3CCC(N4CCN(C)CC4)CC3)cc2)nc1NC1CCOCC1 [compound 42]	+ (+ indicates an inhibition less than or equal to 20%)
CN1CCN(C2CCN(c3ccc(Nc4nc(NC5CCOCC5)c(-c5cccc(O)c5)nc4C(N)=O)cc3)CC2)CC1 [compound 43]	+ (+ indicates an inhibition less than or equal to 20%)
CN1CCN(C2CCN(c3ccc(Nc4nc(NC5CCOCC5)c(-c5cccc(S(C)(=O)=O)c5)nc4C(N)=O)cc3)CC2)CC1 [compound 44]	+ (+ indicates an inhibition less than or equal to 20%)

Structure (SMILES)	EGFR (del19/T790M/C797S) inhibition (%) (0.3 nM compound)
COc1ccc(-c2nc(C(N)=O)c(Nc3ccc(N4CCC(N5CCN(C)CC5)CC4)cc3)nc2NC2CCOCC2)cc1 [compound 45]	+ (+ indicates an inhibition less than or equal to 20%)
CN1CCN(C2CCN(c3ccc(Nc4nc(NC5CCOCC5)c(-c5ccc(S(C)(=O)=O)cc5)nc4C(N)=O)cc3)CC2)CC1 [compound 46]	+ (+ indicates an inhibition less than or equal to 20%)
CN1CCN(C2CCN(c3ccc(Nc4nc(NC5CCOCC5)c(-c5cccc(C#N)c5)nc4C(N)=O)cc3)CC2)CC1 [compound 47]	+ (+ indicates an inhibition less than or equal to 20%)
CN1CCN(C2CCN(c3ccc(Nc4nc(NC5CCOCC5)c(-c5ccn(C)n5)nc4C(N)=O)cc3)CC2)CC1 [compound 49]	+ (+ indicates an inhibition less than or equal to 20%)
CN1CCN(C2CCN(c3ccc(Nc4nc(NC5CCOCC5)c(-c5ccnn5C)nc4C(N)=O)cc3)CC2)CC1 [compound 50]	+ (+ indicates an inhibition less than or equal to 20%)
COc1cccc(-c2nc(C(N)=O)c(Nc3ccc(N4CCC(N5CCN(C)CC5)CC4)cc3)nc2NC2CCOCC2)c1 [compound 51]	+ (+ indicates an inhibition less than or equal to 20%)
CN1CCN(C2CCN(c3ccc(Nc4nc(NC5CCOCC5)c(-c5ccc(C#N)cc5)nc4C(N)=O)cc3)CC2)CC1 [compound 53]	+ (+ indicates an inhibition less than or equal to 20%)
Cc1cnccc1-c1nc(C(N)=O)c(Nc2ccc(N3CCC(N4CCN(C)CC4)CC3)cc2)nc1NC1CCOCC1 [compound 56]	+ (+ indicates an inhibition less than or equal to 20%)
CN1CCN(C2CCN(c3ccc(Nc4nc(NC5CCOCC5)c(-c5cccc(Cl)c5)nc4C(N)=O)cc3)CC2)CC1 [compound 61]	++ (++ indicates an inhibition from 20% to 50%)
CN1CCN(C2CCN(c3ccc(Nc4nc(NC5CCOCC5)c(-c5ccccc5F)nc4C(N)=O)cc3)CC2)CC1 [compound 62]	+ (+ indicates an inhibition less than or equal to 20%)
CN1CCN(C2CCN(c3ccc(Nc4nc(NC5CCOCC5)c(-c5ccccc5Cl)nc4C(N)=O)cc3)CC2)CC1 [compound 63]	+ (+ indicates an inhibition less than or equal to 20%)
CN1CCN(C2CCN(c3ccc(Nc4nc(NC5CCOCC5)c(-c5ccc(F)cc5)nc4C(N)=O)cc3)CC2)CC1 [compound 64]	+ (+ indicates an inhibition less than or equal to 20%)
CN1CCN(C2CCN(c3ccc(Nc4nc(NC5CCOCC5)c(-c5ccc(Cl)cc5)nc4C(N)=O)cc3)CC2)CC1 [compound 65]	++ (++ indicates an inhibition from 20% to 50%)
CN1CCN(C2CCN(c3ccc(Nc4nc(N[C@@H]5CCOC5)c(-c5ccccc5)nc4C(N)=O)cc3)CC2)CC1 [compound 66]	+ (+ indicates an inhibition less than or equal to 20%)
COc1cc(-c2nc(C(N)=O)c(Nc3ccc(N4CCC(N5CCN(C)CC5)CC4)cc3)nc2NC2CCOCC2)ccn1 [compound 67]	+ (+ indicates an inhibition less than or equal to 20%)
CN1CCN(C2CCN(c3ccc(Nc4nc(NC5CCOCC5)c(C5=CCNC5)nc4C(N)=O)cc3)CC2)CC1 [compound 68]	+ (+ indicates an inhibition less than or equal to 20%)
CN1CCN(C2CCN(c3ccc(Nc4nc(N[C@H]5CCOC5)c(-c5ccccc5)nc4C(N)=O)cc3)CC2)CC1 [compound 70]	+ (+ indicates an inhibition less than or equal to 20%)
CN1CCN(C2CCN(c3ccc(Nc4nc(NC5CCOCC5)c(-c5ccccc5CO)nc4C(N)=O)cc3)CC2)CC1 [compound 71]	+ (+ indicates an inhibition less than or equal to 20%)
CN1CCN(C2CCN(c3ccc(Nc4nc(NC5CCOCC5)c(-c5cncnc5)nc4C(N)=O)cc3)CC2)CC1 [compound 72]	+ (+ indicates an inhibition less than or equal to 20%)
CN1CCN(C2CCN(c3ccc(Nc4nc(NC5CCOCC5)c(-c5ccccc5C(F)F)nc4C(N)=O)cc3)CC2)CC1 [compound 82]	+ (+ indicates an inhibition less than or equal to 20%)
CN1CCN(C2CCN(c3ccc(Nc4nc(NC5CCOCC5)c(-c5cccc(NS(C)(=O)=O)c5)nc4C(N)=O)cc3)CC2)CC1 [compound 90]	+ (+ indicates an inhibition less than or equal to 20%)
